Tests used:
Format in all cases: cell-based
Jurkat = experiment: MTT cytotoxicity, human tumor cell strain; settings: Leukemia T Cell, 72 hours
From the text: (§1) We use human tumor cell lines to conduct cytotoxicity analysis. Thirty-one (31) kinds of human tumor cell strains are cultivated in the normal culture medium containing various compounds of zhangnan-5, zhangnan-7 and zhangnan-8. The human tumor lines are bought from ATCC and NCI, and is cultivated with DMEM culture solution containing 10% FBS in 370C couveuse containing 5% CO2. The merged cells are digested by trypsinase, and are counted after washed by the culture solution. 3000˜6000 cells are added into each hole of the 96-hole culture plate, and are hatched for 16 hours or 24 hours. Then, compounds zhangnan-5, zhangnan-7 and zhangnan-8 with different concentrations are added into the holes. Upon further cultivated for another 72 hours, MTT tests are conducted to cells in group treated with drugs and the control group cells, to determine the survival condition of the cells.

ACHN = experiment: MTT cytotoxicity, human tumor cell strain; settings: Kidney, 72 hours
From the text: as §1

MDA-MB-435 = experiment: MTT cytotoxicity, human tumor cell strain; settings: MDA-MB-435, Mammary Gland, 72 hours
From the text: as §1

AU-565 = experiment: MTT cytotoxicity, human tumor cell strain; settings: AU565, AU-565, Mammary Gland, 72 hours
From the text: as §1

IGROV1 = experiment: MTT cytotoxicity, human tumor cell strain; settings: IGROV-1, IGROV1, Ovary, 72 hours
From the text: as §1

PC3 = experiment: MTT cytotoxicity, human tumor cell strain; settings: PC-3, PC3, Prostate, 72 hours
From the text: as §1

U-251 = experiment: MTT cytotoxicity, human tumor cell strain; settings: U-251, Malignant Glioma, 72 hours
From the text: as §1

MDA-MB-231 = experiment: MTT cytotoxicity, human tumor cell strain; settings: MDA-MB-231, Mammary Gland, 72 hours
From the text: as §1

SGC-7901 = experiment: MTT cytotoxicity, human tumor cell strain; settings: SGC-7901, Stomach, 72 hours
From the text: as §1

BT-549 = experiment: MTT cytotoxicity, human tumor cell strain; settings: BT-549, Mammary Gland, 72 hours
From the text: as §1

HT29 = experiment: MTT cytotoxicity, human tumor cell strain; settings: HT-29, HT29, Colon, 72 hours
From the text: as §1

G-361 = experiment: MTT cytotoxicity, human tumor cell strain; settings: G-361, Skin (melanoma), 72 hours
From the text: as §1

A549 = experiment: MTT cytotoxicity, human tumor cell strain; settings: A549, Lung, 72 hours
From the text: as §1

D145 = experiment: MTT cytotoxicity, human tumor cell strain; settings: D145, Prostate, 72 hours
From the text: as §1

SK-MEL-5 = experiment: MTT cytotoxicity, human tumor cell strain; settings: SK-MEL-5, Skin (melanoma), 72 hours
From the text: as §1

Widr = experiment: MTT cytotoxicity, human tumor cell strain; settings: Colon, 72 hours
From the text: as §1

Caki-1 = experiment: MTT cytotoxicity, human tumor cell strain; settings: Caki-1, Kidney, 72 hours
From the text: as §1

SKOV3 = experiment: MTT cytotoxicity, human tumor cell strain; settings: SK-OV-3, SKOV3, Ovary, 72 hours
From the text: as §1

EC109 = experiment: MTT cytotoxicity, human tumor cell strain; settings: ECa-109, EC109, Esophagus, 72 hours
From the text: as §1

CNE-2Z = experiment: MTT cytotoxicity, human tumor cell strain; settings: CNE2Z, Nasopharynx, 72 hours
From the text: as §1

HCT-116 = experiment: MTT cytotoxicity, human tumor cell strain; settings: HCT-116, Colon, 72 hours
From the text: as §1

LoVo = experiment: MTT cytotoxicity, human tumor cell strain; settings: Colon, 72 hours
From the text: as §1

CCL-225 = experiment: MTT cytotoxicity, human tumor cell strain; settings: CCL-225, Colon, 72 hours
From the text: as §1

Raji = experiment: MTT cytotoxicity, human tumor cell strain; settings: Lymphoma, 72 hours
From the text: as §1

Mid PaCa-2 = experiment: MTT cytotoxicity, human tumor cell strain; settings: Mid PaCa-2, Pancreatic Gland, 72 hours
From the text: as §1

SN12C = experiment: MTT cytotoxicity, human tumor cell strain; settings: Kidney, 72 hours
From the text: as §1

786-O = experiment: MTT cytotoxicity, human tumor cell strain; settings: 786-0, Kidney, 72 hours
From the text: as §1

NCI-H23 = experiment: MTT cytotoxicity, human tumor cell strain; settings: NCI-H23, Lung, 72 hours
From the text: as §1

CCL-247 = experiment: MTT cytotoxicity, human tumor cell strain; settings: CCL-247, Colo, 72 hours
From the text: as §1

LnCAP = experiment: MTT cytotoxicity, human tumor cell strain; settings: Prostate, 72 hours
From the text: as §1

HIV-1IIIB = experiment: Inhibition of HIV-1IIIB induced syncytium formation in C8166 cells; settings: for therapeutic index TI: HIV-1IIIB syncytium, C8166, TI=IC50/EC50; for EC50: Human immunodeficiency virus 1, HIV-1IIIB, C8166 cells, third day after infection
From the text: (3) The inhibition effects of compounds zhangnan-5, zhangnan-7 and zhangnan-8 to virus HIV-1IIIB inducing C8166 cell to form syncytium: (see JIANG, Haiou; WANG, Xu; L I, Rurun; CHEN, Dagang; B I, Kunlong, Experimental Research on Recipe Sanhuangsan Capsule for Resisting AIDS virus in Vitro, [J]. Shandong Journal of Traditional Chinese medicine, 2005.8 (1):21-26).
The test sample is double diluted with culture medium on the 96-hole flat culture plate. There are 8 dilutions in total. Each hole 100 ul has 2 duplicate holes. In addition, there are positive control group, cell control group and virus control group. 80 ul C8166 cell of 4×10^5/ml is added into each hole, and then 20 ul virus HIV-1IIIB supernatant is added into each hole. The final volume of each hole is 200 ul. The sample is placed in incubator of 370C, 5% CO2 for cultivation. […] Under the inverted microscope, the number of syncytium formed by virus HIV-1IIIB inducing C8166 cell is counted. […] The following formula is used to calculate the inhibition ratio of the sample to syncytium.
Inhibition ratio formed by syncytium (%)=(1−experimental hole syncytium number/control hole syncytium number)×100%

SMILES | EC50 (Jurkat) [µM] | EC50 (ACHN) [µM] | EC50 (MDA-MB-435) [µM] | EC50 (AU-565) [µM] | EC50 (IGROV1) [µM] | EC50 (PC3) [µM] | EC50 (U-251) [µM] | EC50 (MDA-MB-231) [µM] | EC50 (SGC-7901) [µM] | EC50 (BT-549) [µM] | EC50 (HT29) [µM] | EC50 (G-361) [µM] | EC50 (A549) [µM] | EC50 (D145) [µM] | EC50 (SK-MEL-5) [µM] | EC50 (Widr) [µM] | EC50 (Caki-1) [µM] | EC50 (SKOV3) [µM] | EC50 (EC109) [µM] | EC50 (CNE-2Z) [µM] | other results
C=C(C)C1CCC2(C(=O)O)CCC3(C)C(CCC4C5(C)CCC(=O)C(C)(CO)C5CCC43C)C12 (stereo not drawn) [zhangnan-5] | 0.14 | 1.2 | 0.55 | 0.59 | 2.1 | 0.91 | 0.089 | 0.47 | 0.89 | 0.67 | 0.47 | 0.087 | 0.54 | 0.85 | 0.093 | 0.28 | 0.98 | 1.5 | 0.78 | 1.3 | EC50 (HCT-116): 0.09 µM; EC50 (LoVo): 0.15 µM; EC50 (CCL-225): 0.23 µM; EC50 (Raji): 0.098 µM; EC50 (Mid PaCa-2): 0.93 µM; EC50 (SN12C): 1.3 µM; EC50 (786-O): 3.1 µM; EC50 (NCI-H23): 0.32 µM; EC50 (CCL-247): 0.52 µM; EC50 (LnCAP): 0.69 µM; therapeutic index TI (HIV-1IIIB): 4.6; EC50 (HIV-1IIIB): 0.5 ± 0.07 µM
CC(C)C1CCC2(C(=O)O)CCC3(C)C(CCC4C5(C)CCC(=O)C(C)(CO)C5CCC43C)C12 (stereo not drawn) [zhangnan-7] | 21.3 | 18.3 | 19.3 | 18.2 | 17.4 | 16.2 | 17.8 | 17.5 | 18.5 | 17.4 | 13.9 | 19.3 | 13.1 | 14.8 | 18.5 | 14.8 | 20.1 | 16.9 | 17.9 | 19.2 | EC50 (HCT-116): 15.1 µM; EC50 (LoVo): 15.2 µM; EC50 (CCL-225): 16.1 µM; EC50 (Raji): 20.5 µM; EC50 (Mid PaCa-2): 18.9 µM; EC50 (SN12C): 17.5 µM; EC50 (786-O): 16.8 µM; EC50 (NCI-H23): 12.8 µM; EC50 (CCL-247): 15.6 µM; EC50 (LnCAP): 15.6 µM; therapeutic index TI (HIV-1IIIB): 13158; EC50 (HIV-1IIIB): 0.0019 ± 0.0002 µM
CC(C)C1CCC2(C(=O)O)CCC3(C)C(CCC4C5(C)CCC(O)C(C)(CO)C5CCC43C)C12 (stereo not drawn) [zhangnan-8, 23-hydroxyl-dihydrobetulinic acid] | 7.1 | 8.9 | 7.9 | 6.8 | 7.2 | 8.9 | 5.6 | 7.2 | 8.9 | 7.4 | 8.9 | 5.3 | 6.9 | 8.4 | 4.9 | 8.1 | 9.2 | 6.9 | 9.5 | 10.2 | EC50 (HCT-116): 7.8 µM; EC50 (LoVo): 9.6 µM; EC50 (CCL-225): 8.6 µM; EC50 (Raji): 6.9 µM; EC50 (Mid PaCa-2): 9.4 µM; EC50 (SN12C): 7.6 µM; EC50 (786-O): 8.1 µM; EC50 (NCI-H23): 6.7 µM; EC50 (CCL-247): 8.2 µM; EC50 (LnCAP): 7.8 µM; therapeutic index TI (HIV-1IIIB): 9.4; EC50 (HIV-1IIIB): 1.1 ± 0.09 µM

Source: patent US20120302530A1, “23-HYDROXY-BETULINIC ACID DERIVATIVES, PREPARATION METHODS AND USES THEREOF” (priority 2009, published 2012)
